Where a name gives a salt, the structure may show the parent alone.
Experiments:
[1] = system: lymphocyte proliferation (BALB/c responder and mitomycin C treated C57BL/6 stimulator spleen cells); test: Mixed Lymphocyte Reaction (Test A), one-way MLR, tritiated thymidine incorporation; type: cell-based, mice; conditions: concentration causing 50% inhibition of lymphocyte proliferation, by linear interpolation, ≤ = active at this concentration but not tested at lower doses
Description: A mixed lymphocyte reaction (MLR) occurs when lymphocytes from two genetically dissimilar individuals, or inbred strains of mice are cultured together. An MLR results in the activation and proliferation of lymphocytes, which is measured by the incorporation of radiolabelled thymidine into the cellular DNA synthesised during cell division. A 'one-way' MLR is used to determine the immunosuppressive activity of test compounds in vitro. In this reaction one population of spleen cells serves as the stimulator cells and is treated with mitomycin C to prevent cell division. Spleen cells from a second allogeneic population (responder cells) are untreated and when mixed with the stimulator cells are able to undergo division which is measured. The degree of proliferation is measured in the presence and absence of test compound to assess the immunosuppressive activity of the compound.
The techniques for carrying out lymphocyte proliferation assays including MLRs are well known, eg Bradley, pages 156-166, in Mishell and Shiigi, Eds. Selected Methods in Cellular Immunology (Freeman, San Francisco, 1980); and Battisto et al, methods in Enzymology 1987; 150: 83-91. Various slight modifications of these techniques are in use and that used herein is described in Gibb, Webber and Bowen, J Immunological Methods 1985; 81: 107-113.
Cell suspensions obtained from the spleens of female BALB/c and C57BL/6 strain mice of between 6 and 9 weeks of age were used as sources of responder and stimulator cells respectively. The mice were killed using a rising concentration of CO2 and the spleens removed aseptically and teased using a scalpel and forceps to produce a single cell suspension in Hanks balanced salt solution (HBSS). The suspensions were filtered through cell strainers (Falcon), sedimented by centrifugation and resuspended in Tris-buffered ammonium chloride pH 7.2 (medium D) to lyse the erythrocytes. The cells were sedimented again and washed twice in HBSS before resuspending in complete RPMI 1640 tissue culture medium (medium E). The C57BL/6 cells were resuspended to 9 mls per spleen and a solution of mitomycin C at 400 µg/ml in medium E added to give a final concentration of 40 µg/ml. After incubation of the C57BL/6 cells at 37°C for 30 minutes in an atmosphere of 5% CO2 and 95% air, the cells were sedimented and washed 3 times in medium E. Both cell suspensions were diluted in medium E to 5 x 10^6 cells/ml. 100µl of each of the responder and stimulator cell suspensions were aliquoted into the wells of 96 well flat bottom microtitre plates containing 50 µl of test compound at an appropriate dilution (initially 50 µM diluted in medium E from a stock solution at 100 mM in dimethyl sulphoxide) giving a final test compound concentration of 10 µM (final dilution). Compounds active at this concentration were tested at further final dilution of 1 µM, 0.1 µM and 0.01 µM and 0.001 µM to determine the concentration of test compound which causes 50% inhibition of the immune response (IC50). After four days of culture at 37°C in a humidified atmosphere of 5% CO2 and 95% air, 1 µCi of tritiated thymidine in 20 µl of medium E was added to each well and the plates incubated for a further 24 hours. Cells were then harvested onto Inotech G7 glass fibre filter mats using an Inotech cell harvester. The filters were transferred to vials to which 2 ml of Packard Emulsifier-Safe scintillation fluid was added and the radioactivity from the incorporated thymidine was counted in a Packard liquid scintillation counter. The counts per minute (CPM) reflect the degree of lymphocyte proliferation. The data were analysed to determine the percentage inhibition of lymphocyte proliferation by the test compound. […]

[2] = system: tumour necrosis factor-α (TNF-α); test: Mouse Tumour Necrosis Factor Test (Test B), mouse endotoxin shock model, serum TNF-α by ELISA; type: in vivo, BALB/c mice; conditions: minimum effective oral dose giving significant reduction in serum TNF-α of ≥35%, dosed 2 h before LPS i.p., ≤ = active at dose given but not tested at lower doses; for minimal effective dose: Mus musculus, read-out: MTNF:MED
Text: Preferred compounds of the present invention are active in an in-vivo test which determines the ability of the compounds to inhibit the release of tumour necrosis factor-α (TNF-α) in a mouse endotoxin shock model (Test B). This model is similar to that described by Zuckerman and Bendele (1989), Infection and Immunity 57 (10): p3009-3013.
Each compound of formula I was combined with a carrier of a solution of 1.5% v/v sorbitan esters under the trade name Tween 80 and 0.25% v/v cellosize in sterile water (100 µl) and was administered orally to a group of four BALB/c mice. The concentration of compound was such as to provide dosages selected from 100, 30, 10, 3, 1, 0.1 and 0.03 mg/kg. Two hours after such oral administration, lipopolysaccharide (LPS) (E. coli 0127:B8) (100 µg) in sterile water (0.2 ml) was administered intraperitoneally to the test mice.
A control group of eight BALB/c mice was treated in a similar manner as the test group except that no test compound was included with the carrier.
One hour after LPS administration the mice were killed and blood was collected by cardiac puncture. The blood was incubated at 20°C for 2 hours and the serum was separated from the clotted blood following centrifugation. Serum tumour necrosis factor-α (TNF-α) levels were assayed by an enzyme-linked immunosorbent assay (ELISA) and the concentration of TNF-α in each of the drug-treated groups was compared with the control group by one-way analysis of variance followed by a multiple t-test.
The ELISA was carried out by coating a 96-well vinyl assay plate (Costar) overnight at 4°C with 50 µl per well of 2 µg/ml hamster anti-mouse TNF monoclonal antibody in 0.1M sodium hydrogen carbonate buffer at pH 8.2. After washing the plate with phosphate buffered saline (PBS) containing 0.05% v/v sorbitan esters under the trade name Tween 20 (wash buffer), a blocking/dilution buffer (10% sheep serum in PBS containing 0.1% v/v sorbitan esters under the trade name Tween 20 (200 µl)) was aliquoted to each well and incubated at 37°C for 0.5 hours. After aspirating the blocking buffer, the serum samples and pure TNF (as a standard) diluted in blocking/dilution buffer, were added to the wells and incubated at 37°C for 2 hours. After washing with the wash buffer, a polyclonal rabbit anti-mouse TNF-α antibody in blocking/dilution buffer (100 µl of a 1 in 10,000 dilution) was added and incubated for a further 1.5 hours at 37°C. After further washes, anti-rabbit IgG peroxidase conjugate (100 µl of a 1 in 4000 dilution) was added and incubated at 37°C for 0.5 hours. After further washing, the substrate solution (100 µl per well of 0.1 mg/ml 3,3', 5,5'-tetramethylbenzidine dihydrochloride in 0.1M phosphate citrate buffer, pH 5.0, to which 2 µl of 30% hydrogen peroxide per 10 ml was added just before use) was added and the colour allowed to develop. The reaction was stopped by the addition of 1M sulphuric acid (25 µl) and the optical density read in a multichannel spectrophotometer at 450 nm. The mean TNF-α concentration was determined by comparison with the standard curve and the mean TNF-α concentration for each group compared with that produced by the control group. Drug treatments which cause a statistically significant reduction in TNF-α concentration of ≥35% at a single dose at 100 mg/kg or less were considered active.

For “4-[2-(4-Methylimidazol-1-yl)ethyl]-1-(3-phenylpropyl)piperidine and 4-[2-(5-Methylimidazol-1-yl)ethyl]-1-(3-phenylpropyl)piperidine [Example 118]”, the IC50 [1] was 1400 nM and the “MTNF:MED” value [2] was at most 100 mg/kg.
For `O=C(CCc1ccccc1)N1CCC(CCn2ccnc2)CC1` [Example 50, 4-[2-(imidazol-1-yl)ethyl]-1-(3-phenylpropionyl)piperidine], the IC50 ([1]; Mus musculus) was 200 nM.
Compound `Cl.Cl.O=C(CCc1ccccc1)N1CCCCC1CCn1ccnc1` (stereo not shown) [Example 52, 2-[2-(Imidazol-1-yl)ethyl]-1-(3-phenylpropionyl)piperidine dihydrochloride] has a minimal effective dose [2] of 100 mg/kg.
With `O=C(CCc1ccccc1)N1CCCC(Cn2ccnc2)C1` (stereo not shown) [Example 53, 3-Imidazol-1-ylmethyl-1-(3-phenylpropionyl)-piperidine] the minimal effective dose [2] was 30 mg/kg.
With `O=C(CCc1ccccc1)N1CCC(CCCn2ccnc2)CC1` [Example 56, 4-[3-(Imidazol-1-yl)propyl]-1-(3-phenylpropionyl)piperidine] the IC50 ([1]; Mus musculus) was at most 1000 nM.
`Cc1nccn1CCC1CCN(C(=O)CCc2ccc(Cl)cc2)CC1` [Example 57, 1-[3-(4-Chlorophenyl)propionyl]-4-[2-(2-methylimidazol-1-yl)ethyl]piperidine] showed an IC50 ([1]; Mus musculus) of at most 1000 nM and a minimal effective dose [2] of 100 mg/kg.
`CC(C)c1nccn1CCC1CCN(C(=O)CCc2ccccc2)CC1` [Example 58, 4-[2-(2-Isopropylimidazol-1-yl)ethyl]-1-(3-phenylpropionyl)piperidine] showed an IC50 ([1]; Mus musculus) of 4 nM.
`CCCCCCCCCCCc1nccn1CCC1CCN(C(=O)CCc2ccccc2)CC1` [Example 62, 1-(3-Phenylpropionyl)-4-[2-(2-undecylimidazol-1-yl)ethyl]piperidine] gave an IC50 ([1]; Mus musculus) of 1900 nM.
Compound `Cc1nc2ccccc2n1CCC1CCN(C(=O)CCc2ccccc2)CC1` [Example 65, 2-Methyl-1-{2-[1-(3-phenylpropionyl)-piperidin-4-yl]ethyl}benzimidazole] has an IC50 ([1]; Mus musculus) of 3800 nM.
`CCc1nccn1CC1CCN(C(=O)CCc2ccccc2)CC1` [Example 66, 4-(2-Ethylimidazol-1-ylmethyl)-1-(3-phenylpropionyl)piperidine] gave an IC50 ([1]; Mus musculus) of at most 1000 nM.
`Cc1nccn1CCC1CCN(C(=O)CCc2ccccc2)CC1` [Example 72, 4-[2-(2-Methylimidazol-1-yl)ethyl]-1-(3-phenylpropionyl)piperidine] showed an IC50 ([1]; Mus musculus) of 30 nM.
For `Cc1nccn1CCC1CCN(C(=O)CCCc2ccccc2)CC1` [Example 82, 4-[2-(2-Methylimidazol-1-yl)ethyl]-1-(4-phenylbutyroyl)piperidine], the IC50 ([1]; Mus musculus) was at most 1000 nM.
For `O=C(CCCc1ccccc1)N1CCC(CCn2ccnc2)CC1` [Example 85, 4-[2-(Imidazol-1-yl)ethyl]-1-(4-phenylbutyroyl)piperidine], the IC50 ([1]; Mus musculus) was 600 nM.
With `c1ccc(SCCN2CCC(CCn3ccnc3)CC2)cc1` [Example 86, 4-[2-(imidazol-1-yl)ethyl]-1-(2-phenylthioethyl)piperidine] the IC50 ([1]; Mus musculus) was 2600 nM and the minimal effective dose [2] was at most 10 mg/kg.
Work on `O=C(CCN1CCC(CCn2ccnc2)CC1)c1ccccc1` [Example 89, 4-[2-(Imidazol-1-yl)ethyl]-1-(3-oxo-3-phenylpropyl)piperidine] yielded a minimal effective dose [2] of at most 30 mg/kg.
In the case of `O=C(c1ccccc1Cl)c1nccn1CCC1CCN(CCCc2ccccc2)CC1` [Example 92, 4-{2-[2-(2-Chlorobenzoyl)imidazol-1-yl]-ethyl}-1-(3-phenylpropyl)piperidine], the minimal effective dose [2] is reported as at most 10 mg/kg.
For `Cc1ccc(CCC(=O)N2CCC(CCn3ccnc3C)CC2)cc1` [Example 94, 4-[2-(2-methylimidazol-1-yl)ethyl]-1[3-(4-methylphenyl)propionyl]piperidine], the IC50 ([1]; Mus musculus) was at most 1000 nM.
`c1ccc(CCCN2CCN(CCn3ccnc3)CC2)cc1` [Example 95, 1-[2-imidazol-1-yl)ethyl]-4-(3-phenylpropyl)piperazine trihydrochloride] showed an IC50 ([1]; Mus musculus) of 2800 nM and a minimal effective dose [2] of at most 3 mg/kg.
`c1ccc(CCCC2CCN(CCn3cncn3)CC2)cc1` [Example 97, 1-[2-(1H-1,2,4-triazol-1-yl)ethyl]-4-(3-phenylpropyl)-piperidine dihydrochloride] was tested, and the IC50 ([1]; Mus musculus) was 2300 nM.
`c1ccc(CCCN2CCC(CCCn3ccnc3)CC2)cc1` [Example 104, 4-[3-(Imidazol-1-yl)propyl]-1-(3-phenylpropyl)piperidine] showed an IC50 ([1]; Mus musculus) of at most 1000 nM and a minimal effective dose [2] of at most 100 mg/kg.
In the case of `Cc1nccn1CCC1CCN(CCCc2ccc(Cl)cc2)CC1` [Example 105, 1-[3-(4-Chlorophenyl)propyl]-4-[2-(2-methylimidazol-1-yl)ethyl]piperidine], the IC50 ([1]; Mus musculus) is reported as at most 1000 nM.
For `c1ccc(CCCN2CCC(CCn3cnc(-c4ccccc4)c3-c3ccccc3)CC2)cc1` [Example 108, 4-[2-(4,5-Diphenylimidazol-1-yl)ethyl]-1-(3-phenylpropyl)piperidine], the IC50 ([1]; Mus musculus) was 1200 nM.
`c1ccc(CCCN2CCC(CCn3cncn3)CC2)cc1` [Example 111, 1-(3-Phenylpropyl)-4-[2-(1H-1,2,4-triazol-1-yl)ethyl]piperidine] gave an IC50 ([1]; Mus musculus) of 7300 nM and a minimal effective dose [2] of at most 10 mg/kg.
`c1ccc(CCCN2CCC(CCn3ccnn3)CC2)cc1` [Example 119, 1-(3-Phenylpropyl)-4-[2-(1H-1,2,3-triazol-1-yl)ethyl]piperidine] was tested, and the IC50 ([1]; Mus musculus) was 2400 nM.
Compound `COc1ccc(CCCN2CCC(CCn3ccnc3)CC2)cc1` [Example 124, 4-[2-(Imidazol-1-yl)ethyl]-1-[3-(4-methoxyphenyl)propyl]piperidine] has a minimal effective dose [2] of at most 30 mg/kg.
